From ChEMBL document CHEMBL5584262, “Plakevulin A induces apoptosis and suppresses IL-6-induced STAT3 activation in HL60 cells” (Bioorg Med Chem Lett, 2024)
pIC50: −log10 of the molar value. The source made the active and inactive calls. No cut-off for these calls is given here. *1 amine or outer side, *2 acyl side, *3 side chain or, on linkers, in order; H or OH if unused. Where a SMILES comes first, the peptide text is derived from it. Bridges are numbered along the chain shown (N, C = ends). Roman numbers before positions name the chains, in order. [ ]: non-standard residue; d: D form. Actinocin(9to1) = Cc1c2oc3c(C)ccc(C(=O)[*:1])c3nc-2c(C(=O)[*:2])c(N)c1=O; NMeV = CN[C@H](C(=O)O)C(C)C; Sar = CNCC(=O)O

What was measured:
[1] = tested on: HL-60; assay: Cytotoxicity against human HL-60 cells assessed as inhibition of cell viability incubated for 48 hrs by WST-8 assay; type: functional, cell-based; conditions: HL-60, 48 h
[2] = target: T1, Peroxisomal multifunctional enzyme type 2 (Homo sapiens) (UniProt P51659); assay: Binding affinity to HSD17B4 in human HL-60 cell lysate by Western blot analysis; type: subcellular
T1 sequence (whole entry): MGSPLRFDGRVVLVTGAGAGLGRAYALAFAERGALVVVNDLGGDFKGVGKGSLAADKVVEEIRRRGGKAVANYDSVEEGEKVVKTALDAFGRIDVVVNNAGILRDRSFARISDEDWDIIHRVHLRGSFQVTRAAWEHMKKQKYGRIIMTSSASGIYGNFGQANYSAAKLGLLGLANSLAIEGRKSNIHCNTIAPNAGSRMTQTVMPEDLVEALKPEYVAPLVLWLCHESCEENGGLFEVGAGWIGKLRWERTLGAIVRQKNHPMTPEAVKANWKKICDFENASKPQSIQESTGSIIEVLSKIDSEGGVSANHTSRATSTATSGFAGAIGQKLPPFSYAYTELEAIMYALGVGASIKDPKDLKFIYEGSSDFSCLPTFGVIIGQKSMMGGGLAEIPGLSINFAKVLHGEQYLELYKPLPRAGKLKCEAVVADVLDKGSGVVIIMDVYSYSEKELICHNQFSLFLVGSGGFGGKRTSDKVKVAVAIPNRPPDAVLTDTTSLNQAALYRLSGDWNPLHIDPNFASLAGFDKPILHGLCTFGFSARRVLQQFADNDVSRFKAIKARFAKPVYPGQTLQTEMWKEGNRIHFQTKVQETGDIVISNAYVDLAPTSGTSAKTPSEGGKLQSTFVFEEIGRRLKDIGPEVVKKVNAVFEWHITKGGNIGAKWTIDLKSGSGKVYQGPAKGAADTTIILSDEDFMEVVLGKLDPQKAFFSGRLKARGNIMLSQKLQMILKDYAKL

[3] = target: T1, Peroxisomal multifunctional enzyme type 2 (Homo sapiens); assay: Binding affinity to HSD17B4 in human HL-60 cell lysate by pull down assay; type: subcellular
[4] = tested on: HL-60; assay: Downregulation of IL-6-induced STAT3 phosphorylation in human HL-60 cells pretreated for 24 hrs followed by IL-6 stimulation by Western blot analysis; type: functional, cell-based
[5] = tested on: HL-60; assay: Induction of apoptosis in human HL-60 cells assessed as DNA fragmentation at 1 uM treated for 24 hrs by agarose gel electrophoresis; type: functional, cell-based
[6] = tested on: HL-60; assay: Induction of apoptosis in Z-VAD-fmk-treated human HL-60 cells assessed as DNA fragmentation at 1 uM treated for 24 hrs by agarose gel electrophoresis; type: functional, cell-based
[7] = tested on: HL-60; assay: Induction of apoptosis in human HL-60 cells assessed as DNA fragmentation at 5 uM treated for 24 hrs by agarose gel electrophoresis; type: functional, cell-based
[8] = tested on: HL-60; assay: Induction of apoptosis in Z-VAD-fmk-treated human HL-60 cells assessed as DNA fragmentation at 5 uM treated for 24 hrs by agarose gel electrophoresis; type: functional, cell-based
[9] = tested on: HL-60; assay: Induction of apoptosis in Z-VAD-fmk-treated human HL-60 cells assessed as inhibition of caspase-3 activation at 5 uM treated for 24 hrs by Ac-DEVD-MCA substrate based analysis; type: functional, cell-based
[10] = tested on: HL-60; assay: Cytotoxicity against human HL-60 cells assessed as inhibition of cell viability incubated for 24 hrs by MTT assay; type: functional, cell-based; conditions: HL-60, 24 h
[11] = tested on: HeLa; assay: Cytotoxicity against human HeLa cells assessed as inhibition of cell viability incubated for 24 hrs by MTT assay; type: functional, cell-based
[12] = tested on: MC3T3-E1; assay: Cytotoxicity against mouse MC3T3-E1 cells assessed as inhibition of cell viability incubated for 24 hrs by MTT assay; type: functional, cell-based; conditions: MC3T3-E1, 24 h
[13] = tested on: MRC5; assay: Cytotoxicity against human MRC5 cells assessed as inhibition of cell viability incubated for 24 hrs by MTT assay; type: functional, cell-based; conditions: MRC5, 24 h
[14] = Inhibition of calf DNA polymerase alpha using DNA as substrate incubated for 60 mins in presence of […]; design: species or system Bos taurus
[15] = target: DNA polymerase beta (Rattus norvegicus, UniProt P06766); assay: Inhibition of rat DNA polymerase beta using DNA as substrate incubated for 60 mins in presence of […]

## CCCCCCCCCCCCCCCC[C@]1(O)C=C[C@H](OC(=O)CCCCCNC(=O)CCCC[C@@H]2SC[C@@H]3NC(=O)N[C@@H]32)[C@H]1C(=O)OC
[1]
  pIC50: 5.24
[2]
  Activity: Active
[3]
  Activity: Active

## CO/C=C(/C(=O)OC)c1ccccc1COc1cc(C(F)(F)F)nc(OC(C)C)n1
[4]
  Activity: Dose-Dependent Effect

## O=C(O)CCCCCNC(=O)CCCC[C@@H]1SC[C@@H]2NC(=O)N[C@@H]21
[3]
  Activity: inactive

## Cc1c2oc3c(C)ccc(C(=O)N[C@@H]4C(=O)N[C@H](C(C)C)C(=O)N5CCC[C@H]5C(=O)N(C)CC(=O)N(C)[C@@H](C(C)C)C(=O)O[C@@H]4C)c3nc-2c(C(=O)N[C@@H]2C(=O)N[C@H](C(C)C)C(=O)N3CCC[C@H]3C(=O)N(C)CC(=O)N(C)[C@@H](C(C)C)C(=O)O[C@@H]2C)c(N)c1=O (I: T[dV]P[Sar][NMeV] / II: T[dV]P[Sar][NMeV]; ester I:1-I:C, II:1-II:C; linker I:N-II:N via Actinocin(9to1))
[5]
  Activity: Active
[6]
  Activity: inactive

## CCCCCCCCCCCCCCCC[C@]1(O)C=C[C@H](O)[C@H]1C(=O)OC [PLAKEVULIN A]
[1]
  pIC50: 5.58
[7]
  Activity: Active
[8]
  Activity: inactive
[9]
  inhibition: Active
[10]
  pIC50: 5.69
[11]
  pIC50: 4.94
[12]
  pIC50: 4.91
[13]
  pIC50: < 4.82
[4]
  Activity: Dose-Dependent Effect
[14]
  pIC50: 3.86
[15]
  pIC50: 3.72
